Reference: ChEMBL document CHEMBL1201862, “PubChem BioAssay data set” (2004)
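Assay format: 96-well plates, 48-hour exposure. The concentration for 50% growth inhibition is given as GI50.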 Calls of active or inactive are those of the source. No stated cut-off is given here; in the data, active = GI50 up to about 1.1 µM and inactive = higher.

Experiments:
Experiment in all cases: DTP human tumour cell line panel, 48 h
OVCAR-5 = test system: OVCAR-5
M14 = test system: M14
Malme-3M = test system: Malme-3M
RXF 393 = test system: RXF 393
LOX IMVI = test system: LOX IMVI
SF-539 = test system: SF-539
EKVX = test system: EKVX
SK-MEL-2 = test system: SK-MEL-2
HL-60 = test system: HL-60
OVCAR-4 = test system: OVCAR-4
NCI-H460 = test system: NCI-H460
SF-268 = test system: SF-268
COLO 205 = test system: COLO 205
786-0 = test system: 786-0
MOLT-4 = test system: MOLT-4

| Structure (SMILES) | GI50 (OVCAR-5) | GI50 (M14) | GI50 (Malme-3M) | GI50 (RXF 393) | GI50 (LOX IMVI) | GI50 (SF-539) | GI50 (EKVX) | GI50 (SK-MEL-2) | GI50 (HL-60) | GI50 (OVCAR-4) | GI50 (NCI-H460) | GI50 (SF-268) | GI50 (COLO 205) | GI50 (786-0) | GI50 (MOLT-4) |
| --- | --- | --- | --- | --- | --- | --- | --- | --- | --- | --- | --- | --- | --- | --- | --- |
| O=C(CC(=O)C1CCOC1=O)C(=O)Nc1ccc(Cl)cc1Cl (centres undefined) | > 100 µM (inactive) | > 100 µM (inactive) | > 100 µM (inactive) | > 100 µM (inactive) | > 100 µM (inactive) | > 100 µM (inactive) | > 100 µM (inactive) | > 100 µM (inactive) | > 100 µM (inactive) | > 100 µM (inactive) | > 100 µM (inactive) | > 100 µM (inactive) | > 100 µM (inactive) | > 100 µM (inactive) | – |
| CN1CCS(=O)(=O)NC(Cc2ccccc2)C(=O)N2CCCC2C1=O (centres undefined) | > 100 µM (inactive) | – | > 100 µM (inactive) | – | > 100 µM (inactive) | > 100 µM (inactive) | > 100 µM (inactive) | > 100 µM (inactive) | > 100 µM (inactive) | > 100 µM (inactive) | – | > 100 µM (inactive) | > 100 µM (inactive) | > 100 µM (inactive) | > 100 µM (inactive) |
| NC(=O)N/N=C1/CCCC/C1=C\c1ccccc1 | > 100 µM (inactive) | > 100 µM (inactive) | > 100 µM (inactive) | > 100 µM (inactive) | > 100 µM (inactive) | > 100 µM (inactive) | > 100 µM (inactive) | > 100 µM (inactive) | > 100 µM (inactive) | > 100 µM (inactive) | > 100 µM (inactive) | > 100 µM (inactive) | > 100 µM (inactive) | > 100 µM (inactive) | 36.6 µM (inactive) |
| COc1cc(CCc2ccc(OC(C)=O)cc2)cc(OC)c1OC | 72.4 µM (inactive) | > 100 µM (inactive) | > 100 µM (inactive) | > 100 µM (inactive) | 92 µM (inactive) | > 100 µM (inactive) | > 100 µM (inactive) | – | > 100 µM (inactive) | > 100 µM (inactive) | > 100 µM (inactive) | > 100 µM (inactive) | > 100 µM (inactive) | > 100 µM (inactive) | > 100 µM (inactive) |
| N#C/C(=C\c1ccccc1)C(NO)Nc1ccccc1 (centres undefined) | > 100 µM (inactive) | > 100 µM (inactive) | > 100 µM (inactive) | 41.5 µM (inactive) | – | 70.3 µM (inactive) | > 100 µM (inactive) | > 100 µM (inactive) | > 100 µM (inactive) | 84.3 µM (inactive) | > 100 µM (inactive) | 65.3 µM (inactive) | 45.3 µM (inactive) | > 100 µM (inactive) | 31.9 µM (inactive) |
| CCCNCCCC(NC(C)=O)C(=O)NCc1ccccc1 (centres undefined) | > 100 µM (inactive) | > 100 µM (inactive) | > 100 µM (inactive) | > 100 µM (inactive) | > 100 µM (inactive) | > 100 µM (inactive) | > 100 µM (inactive) | > 100 µM (inactive) | – | > 100 µM (inactive) | > 100 µM (inactive) | > 100 µM (inactive) | > 100 µM (inactive) | > 100 µM (inactive) | > 100 µM (inactive) |
| COc1ccccc1/C=C1\CCC(CCN2CCOCC2)C1=O (centres undefined) | > 100 µM (inactive) | > 100 µM (inactive) | > 100 µM (inactive) | 59.8 µM (inactive) | 63.2 µM (inactive) | > 100 µM (inactive) | > 100 µM (inactive) | > 100 µM (inactive) | 31.5 µM (inactive) | 37.8 µM (inactive) | 90.8 µM (inactive) | > 100 µM (inactive) | – | > 100 µM (inactive) | 48.1 µM (inactive) |
| Cc1cc(NS(=O)(=O)c2ccc(NC(=O)c3cccc4c(Nc5ccc(S(=O)(=O)Nc6cc(C)on6)cc5)c5ccccc5nc34)cc2)no1 | > 100 µM (inactive) | 72.6 µM (inactive) | > 100 µM (inactive) | 25.8 µM (inactive) | 30.5 µM (inactive) | 27.4 µM (inactive) | > 100 µM (inactive) | 30.3 µM (inactive) | 23.7 µM (inactive) | 17.2 µM (inactive) | > 100 µM (inactive) | 34.7 µM (inactive) | 62.4 µM (inactive) | 33 µM (inactive) | 34.1 µM (inactive) |
| O=C(Nc1ccc(Cl)c(Cl)c1)C(=O)C(C(=O)c1ccccc1-c1ccccc1)C1OC(=O)c2ccccc21 (centres undefined) | 18.5 µM (inactive) | 14.7 µM (inactive) | 8.55 µM (inactive) | 8.15 µM (inactive) | 13.5 µM (inactive) | 10.1 µM (inactive) | 20.8 µM (inactive) | 11.4 µM (inactive) | 10.9 µM (inactive) | – | 19.9 µM (inactive) | 15.8 µM (inactive) | 15.6 µM (inactive) | 11.2 µM (inactive) | 14 µM (inactive) |
| CC(C)(C)N/N=N/c1cn(C2OC(CO)C(O)C2O)c(=O)[nH]c1=O (centres undefined) | > 100 µM (inactive) | > 100 µM (inactive) | > 100 µM (inactive) | 61.4 µM (inactive) | 41.7 µM (inactive) | – | > 100 µM (inactive) | > 100 µM (inactive) | 50.9 µM (inactive) | – | 64.9 µM (inactive) | > 100 µM (inactive) | 37.2 µM (inactive) | > 100 µM (inactive) | > 100 µM (inactive) |
| Cc1ccccc1CN1CC=c2ccccc2=N1 | > 100 µM (inactive) | > 100 µM (inactive) | > 100 µM (inactive) | – | > 100 µM (inactive) | > 100 µM (inactive) | 93.5 µM (inactive) | > 100 µM (inactive) | – | > 100 µM (inactive) | > 100 µM (inactive) | > 100 µM (inactive) | > 100 µM (inactive) | > 100 µM (inactive) | – |
| COC(=O)C(CCC1(C)OCCO1)C(C)=O (centres undefined) | > 100 µM (inactive) | > 100 µM (inactive) | > 100 µM (inactive) | > 100 µM (inactive) | > 100 µM (inactive) | > 100 µM (inactive) | > 100 µM (inactive) | > 100 µM (inactive) | > 100 µM (inactive) | > 100 µM (inactive) | > 100 µM (inactive) | > 100 µM (inactive) | > 100 µM (inactive) | > 100 µM (inactive) | > 100 µM (inactive) |
| CCN(CC)c1ccc(C(=O)c2ccccc2C(=O)O)c(O)c1 | > 100 µM (inactive) | > 100 µM (inactive) | > 100 µM (inactive) | > 100 µM (inactive) | > 100 µM (inactive) | > 100 µM (inactive) | > 100 µM (inactive) | > 100 µM (inactive) | > 100 µM (inactive) | > 100 µM (inactive) | > 100 µM (inactive) | > 100 µM (inactive) | > 100 µM (inactive) | > 100 µM (inactive) | > 100 µM (inactive) |
| CCCCOC(=O)CNC(=O)OCCCCC#CC#CCCCCOC(=O)NCC(=O)OCCCC | > 100 µM (inactive) | > 100 µM (inactive) | > 100 µM (inactive) | – | > 100 µM (inactive) | > 100 µM (inactive) | > 100 µM (inactive) | – | > 100 µM (inactive) | > 100 µM (inactive) | > 100 µM (inactive) | > 100 µM (inactive) | > 100 µM (inactive) | > 100 µM (inactive) | > 100 µM (inactive) |
| CCOP(=O)(OCC)OC1C=CC2CCC1C2 (centres undefined) | > 100 µM (inactive) | > 100 µM (inactive) | > 100 µM (inactive) | > 100 µM (inactive) | > 100 µM (inactive) | > 100 µM (inactive) | > 100 µM (inactive) | > 100 µM (inactive) | > 100 µM (inactive) | > 100 µM (inactive) | > 100 µM (inactive) | > 100 µM (inactive) | > 100 µM (inactive) | 86.3 µM (inactive) | > 100 µM (inactive) |
| Nc1nc(Cl)cc(NCCCCCCNc2cc(Cl)nc(N)n2)n1 | 16 µM (inactive) | > 100 µM (inactive) | – | > 100 µM (inactive) | 20.8 µM (inactive) | > 100 µM (inactive) | > 100 µM (inactive) | 87.9 µM (inactive) | 15.2 µM (inactive) | 88.9 µM (inactive) | > 100 µM (inactive) | – | > 100 µM (inactive) | > 100 µM (inactive) | 48.2 µM (inactive) |
| S=C(Nc1ccccc1)N1N=C2c3ccccc3CC[C@H]2[C@@H]1c1ccccc1 | > 100 µM (inactive) | 4.89 µM (inactive) | > 100 µM (inactive) | 2.12 µM (inactive) | 7.35 µM (inactive) | 5.87 µM (inactive) | > 100 µM (inactive) | 2.35 µM (inactive) | 0.855 µM (active) | 47.1 µM (inactive) | 3.64 µM (inactive) | 12.9 µM (inactive) | – | 4.31 µM (inactive) | 4 µM (inactive) |
| O=C1C=CC(=CC=C2C=CN(CCCCCCCCCCC(=O)NCCCCCCCCCCCC(=O)O)C=C2)C=C1 | > 100 µM (inactive) | > 100 µM (inactive) | > 100 µM (inactive) | > 100 µM (inactive) | > 100 µM (inactive) | > 100 µM (inactive) | > 100 µM (inactive) | – | > 100 µM (inactive) | > 100 µM (inactive) | > 100 µM (inactive) | > 100 µM (inactive) | > 100 µM (inactive) | > 100 µM (inactive) | > 100 µM (inactive) |
| CCCCCCCCCCCCCS(=O)(=O)O | > 100 µM (inactive) | > 100 µM (inactive) | > 100 µM (inactive) | > 100 µM (inactive) | > 100 µM (inactive) | > 100 µM (inactive) | > 100 µM (inactive) | > 100 µM (inactive) | > 100 µM (inactive) | > 100 µM (inactive) | > 100 µM (inactive) | > 100 µM (inactive) | > 100 µM (inactive) | > 100 µM (inactive) | – |
